Test results reported in patent US20250179103A1, “6-OXODECAHYDROPYRROLO[1,2-A][1,5]DIAZOCINE AND 6-OXODECAHYDRO-4H-PYRROLO[2,1-D][1,5]THIAZOCINE DERIVATIVES AS STAT3 AND STAT6 MODULATORS FOR THE TREATMENT OF CANCER AND INFLAMMATORY CONDITIONS” (Recludix Pharma, Inc., priority 2022, published 2025).

Experiments:
[1] = target: T1, Recombinant STAT6 protein (STAT6(W123-T658)) (Homo sapiens, UniProt P42226); test: STAT6 Fluorescence Polarization (FP) Assay; assay type: binding; settings: STAT6(W123-T658) 250 nM, probe 5-FAM-ApYKPFQDLI-NH2 2 nM, 45-minute incubation
T1 construct: Recombinant STAT6 protein (STAT6(W123-T658))
T1 sequence (P42226 123-658): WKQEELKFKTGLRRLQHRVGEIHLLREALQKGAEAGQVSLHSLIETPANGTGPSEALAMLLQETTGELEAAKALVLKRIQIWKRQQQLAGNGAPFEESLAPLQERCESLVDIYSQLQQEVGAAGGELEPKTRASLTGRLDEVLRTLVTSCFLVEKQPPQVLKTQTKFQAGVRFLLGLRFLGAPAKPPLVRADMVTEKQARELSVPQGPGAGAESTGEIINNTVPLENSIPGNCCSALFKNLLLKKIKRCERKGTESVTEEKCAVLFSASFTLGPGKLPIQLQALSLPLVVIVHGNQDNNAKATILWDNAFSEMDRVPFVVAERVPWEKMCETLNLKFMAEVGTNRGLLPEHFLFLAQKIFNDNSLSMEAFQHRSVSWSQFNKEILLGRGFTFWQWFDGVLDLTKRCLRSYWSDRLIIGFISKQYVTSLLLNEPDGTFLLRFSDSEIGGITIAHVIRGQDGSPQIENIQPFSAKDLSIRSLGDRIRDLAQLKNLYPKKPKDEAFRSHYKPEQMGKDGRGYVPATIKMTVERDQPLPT
Summary of the method: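 Displacement of a fluorescent phosphotyrosine peptide (5-FAM-ApYKPFQDLI-NH2, 2 nM) from STAT6(W123-T658) (250 nM), 1% DMSO, pH 7.4 HEPES buffer. After 45 min at room temperature, polarization (mP) was plotted versus log compound concentration and fitted by nonlinear regression to give IC50.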

[2] = target: T2, Recombinant STAT3 protein (STAT3(G127-I722)) (Homo sapiens, UniProt P40763); test: STAT3 Fluorescence Polarization (FP) Assay; assay type: binding; settings: STAT3(G127-I722) 25 nM, probe 5-FAM-GpYLPQTV-NH2 2 nM, 45-minute incubation
T2 construct: Recombinant STAT3 protein (STAT3(G127-I722))
Summary of the method: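 STAT3(G127-I722), 25 nM, was mixed with 2 nM 5-FAM-GpYLPQTV-NH2 probe in HEPES pH 7.4 buffer with 1% DMSO and serially diluted compound. FP (mP) was read after 45 min at room temperature. IC50 came from nonlinear regression.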

T2 sequence (P40763 127-722): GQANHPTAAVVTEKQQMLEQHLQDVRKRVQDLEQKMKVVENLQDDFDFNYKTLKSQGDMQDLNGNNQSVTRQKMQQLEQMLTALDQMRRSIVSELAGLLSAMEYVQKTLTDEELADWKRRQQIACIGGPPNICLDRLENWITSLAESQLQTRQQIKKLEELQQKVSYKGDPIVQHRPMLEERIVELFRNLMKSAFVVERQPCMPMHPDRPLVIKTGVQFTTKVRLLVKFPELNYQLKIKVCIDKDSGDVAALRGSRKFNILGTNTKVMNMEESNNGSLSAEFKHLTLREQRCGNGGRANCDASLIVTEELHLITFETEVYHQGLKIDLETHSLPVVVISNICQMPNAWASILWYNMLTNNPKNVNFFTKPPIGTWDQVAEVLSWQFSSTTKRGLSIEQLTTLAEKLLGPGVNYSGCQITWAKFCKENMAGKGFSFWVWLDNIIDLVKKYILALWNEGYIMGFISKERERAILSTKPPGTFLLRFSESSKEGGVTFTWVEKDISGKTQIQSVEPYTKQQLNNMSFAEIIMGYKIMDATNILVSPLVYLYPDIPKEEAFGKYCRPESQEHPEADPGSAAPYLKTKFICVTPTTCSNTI

Question: CC(=O)N1CC[C@H]2CC[C@@H](C(=O)N3CC[C@H](Cc4cccnc4)C3)N2C(=O)[C@@H](NC(=O)c2cc3cc(C(F)(F)P(=O)(O)O)ccc3s2)C1 (single isomer, unassigned) [Compound 65, ((2-(((5S,8S,10aR)-3-acetyl-6-oxo-8-((S)-3-(pyridin-3-ylmethyl)pyrrolidine-1-carbonyl)decahydropyrrolo[1,2-a][1,5]diazocin-5-yl)carbamoyl)benzo[b]thiophen-5-yl)difluoromethyl)phosphonic acid or ((2-(((5S,8S,10aR)-3-acetyl-6-oxo-8-((R)-3-(pyridin-3-ylmethyl)pyrrolidine-1-carbonyl)decahydropyrrolo[1,2-a][1,5]diazocin-5-yl)carbamoyl)benzo[b]thiophen-5-yl)difluoromethyl)phosphonic acid] was tested. Which IC50 [1] did it give?
Answer: 0.3 to 3 µM

Question: And the IC50 [2]?
Answer: 1 to 10 µM

Question: What does the source list for CC(=O)N1CC[C@H]2CC[C@@H](C(=O)N3CC4CCS(=O)(=O)CC4C3)N2C(=O)[C@@H](NC(=O)c2cc3cc(C(F)(F)P(=O)(O)O)ccc3s2)C1 (stereo partly drawn) [Compound 80, ((2-(((5S,8S,10aR)-3-acetyl-8-(5,5-dioxidooctahydrothiopyrano[3,4-c]pyrrole-2-carbonyl)-6-oxodecahydropyrrolo[1,2-a][1,5]diazocin-5-yl)carbamoyl)benzo[b]thiophen-5-yl)difluoromethyl)phosphonic acid]?
Answer: IC50 [1]: 0.3 to 3 µM; IC50 [2]: 0.1 to 1 µM

Question: Which results are given for Cc1ccc2[nH]nc(C(=O)N3CC[C@H](NC(=O)c4ccc5ccc(C(F)(F)P(=O)(O)O)cc5c4)C(=O)N4[C@H](CC[C@H]4C(=O)N4C[C@H](c5ccccc5)[C@@H](C#N)C4)C3)c2c1 (relative stereo) [Compound 233, ((7-(((5S,8S,10aR)-8-(rel-tran)-3-cyano-4-phenylpyrrolidine-1-carbonyl)-2-(5-methyl-1H-indazole-3-carbonyl)-6-oxodecahydropyrrolo[1,2-a][1,4]diazocin-5-yl)carbamoyl)naphthalen-2-yl)difluoromethyl)phosphonic acid]?
Answer: IC50 [1]: ≤ 0.3 µM; IC50 [2]: 1 to 10 µM

Question: For CC(=O)N1CC[C@H]2CC[C@@H](C(=O)Nc3ccc4onc(C)c4c3)N2C(=O)[C@@H](NC(=O)c2cc3cc(C(F)(F)P(=O)(O)O)ccc3s2)C1 [Compound 68, ((2-(((5S,8S,10aR)-3-acetyl-8-((3-methylbenzo[d]isoxazol-5-yl)carbamoyl)-6-oxodecahydropyrrolo[1,2-a][1,5]diazocin-5-yl)carbamoyl)benzo[b]thiophen-5-yl)difluoromethyl)phosphonic acid], which IC50 [1] is on record?
Answer: 0.3 to 3 µM

Question: And the IC50 [2]?
Answer: 0.1 to 1 µM

Question: Which IC50 [1] does the source give for N#C[C@H]1CN(C(=O)[C@@H]2CC[C@@H]3CCN(CC(F)F)C[C@H](NC(=O)c4ccc5ccc(C(F)(F)P(=O)(O)O)cc5c4)C(=O)N32)C[C@@H]1c1cc(F)cc(F)c1 (relative stereo) [Compound 246, ((7-(((5S,8S,10aR)-8-((rel-trans)-3-cyano-4-(3,5-difluorophenyl)pyrrolidine-1-carbonyl)-3-(2,2-difluoroethyl)-6-oxodecahydropyrrolo[1,2-a][1,5]diazocin-5-yl)carbamoyl)naphthalen-2-yl)difluoromethyl)phosphonic acid] here?
Answer: 0.3 to 3 µM

Question: And the IC50 [2]?
Answer: 1 to 10 µM

Question: How did the IC50 [1] turn out when CCN1CC[C@H]2CC[C@@H](C(=O)N3C[C@@H](C#N)[C@H](c4ccccc4)C3)N2C(=O)[C@@H](NC(=O)c2ccc3ccc(C(F)(F)P(=O)(O)O)cc3c2)C1 (single isomer, unassigned) [Compound 243, ((7-(((5S,8S,10aR)-8-((3S,4R or 3R,4S)-3-cyano-4-phenylpyrrolidine-1-carbonyl)-3-ethyl-6-oxodecahydropyrrolo[1,2-a][1,5]diazocin-5-yl)carbamoyl)naphthalen-2-yl)difluoromethyl)phosphonic acid] was run?
Answer: 0.3 to 3 µM

Question: And the IC50 [2]?
Answer: 1 to 10 µM

Question: How did the IC50 [1] turn out when CN1CCN(c2ccccc2CN2CC[C@H]3CC[C@@H](C(=O)N4CC(c5cccnc5)C4)N3C(=O)[C@@H](NC(=O)c3cc4cc(C(F)(F)P(=O)(O)O)ccc4s3)C2)CC1 [Compound 274, (difluoro(2-(((5S,8S,10aR)-3-(2-(4-methylpiperazin-1-yl)benzyl)-6-oxo-8-(3-(pyridin-3-yl)azetidine-1-carbonyl)decahydropyrrolo[1,2-a][1,5]diazocin-5-yl)carbamoyl)benzo[b]thiophen-5-yl)methyl)phosphonic acid] was run?
Answer: 3 to 30 µM

Question: And the IC50 [2]?
Answer: ≤ 0.1 µM

Question: Which results are given for CC(=O)N1CC[C@H]2CC[C@@H](C(=O)N3CCC(C(=O)N4CCCCC4)CC3)N2C(=O)[C@@H](NC(=O)c2cc3cc(C(F)(F)P(=O)(O)O)ccc3s2)C1 [Compound 192, ((2-(((5S,8S,10aR)-3-acetyl-6-oxo-8-(4-(piperidine-1-carbonyl)piperidine-1-carbonyl)decahydropyrrolo[1,2-a][1,5]diazocin-5-yl)carbamoyl)benzo[b]thiophen-5-yl)difluoromethyl)phosphonic acid]?
Answer: IC50 [1]: 3 to 30 µM; IC50 [2]: 1 to 10 µM

Question: Which results are given for CC(=O)N1CC[C@H]2CC[C@@H](C(=O)N3C[C@H](C#N)C[C@@H]3c3ccccc3)N2C(=O)[C@@H](NC(=O)c2cc3cc(C(F)(F)P(=O)(O)O)ccc3s2)C1 (relative stereo) [Compound 205, ((2-(((5S,8S,10aR)-3-acetyl-8-((rel-cis)-4-cyano-2-phenylpyrrolidine-1-carbonyl)-6-oxodecahydropyrrolo[1,2-a][1,5]diazocin-5-yl)carbamoyl)benzo[b]thiophen-5-yl)difluoromethyl)phosphonic acid]?
Answer: IC50 [1]: 0.3 to 3 µM; IC50 [2]: 1 to 10 µM

Question: With CC(=O)N1CC[C@H]2CC[C@@H](C(=O)N3Cc4cnn(-c5ncccn5)c4C3)N2C(=O)[C@@H](NC(=O)c2cc3cc(C(F)(F)P(=O)(O)O)ccc3s2)C1 [Compound 87, ((2-(((5S,8S,10aR)-3-acetyl-6-oxo-8-(1-(pyrimidin-2-yl)-1,4,5,6-tetrahydropyrrolo[3,4-c]pyrazole-5-carbonyl)decahydropyrrolo[1,2-a][1,5]diazocin-5-yl)carbamoyl)benzo[b]thiophen-5-yl)difluoromethyl)phosphonic acid] as the molecule, how does the IC50 [1] read?
Answer: 0.3 to 3 µM

Question: What about the IC50 [2] of the same molecule?
Answer: 1 to 10 µM

Question: For CC(=O)N1CC[C@H]2CC[C@@H](C(=O)N3CCN(Cc4ccccc4)C(C#N)C3)N2C(=O)[C@@H](NC(=O)c2cc3cc(C(F)(F)P(=O)(O)O)ccc3s2)C1 (stereo partly drawn) [Compound 62, ((2-(((5S,8S,10aR)-3-acetyl-8-(4-benzyl-3-cyanopiperazine-1-carbonyl)-6-oxodecahydropyrrolo[1,2-a][1,5]diazocin-5-yl)carbamoyl)benzo[b]thiophen-5-yl)difluoromethyl)phosphonic acid], which IC50 [1] is on record?
Answer: 0.3 to 3 µM

Question: And the IC50 [2]?
Answer: 1 to 10 µM

Question: For CC(=O)N1CC[C@H]2CC[C@@H](C(=O)N(C)c3ccccc3)N2C(=O)[C@@H](NC(=O)c2cc3cc(C(CO)P(=O)(O)O)ccc3s2)C1 (stereo partly drawn) [Compound 19, (1-(2-(((5S,8S,10aR)-3-acetyl-8-(methyl(phenyl)carbamoyl)-6-oxodecahydropyrrolo[1,2-a][1,5]diazocin-5-yl)carbamoyl)benzo[b]thiophen-5-yl)-2-hydroxyethyl)phosphonic acid], which IC50 [1] is on record?
Answer: > 30 µM

Question: And the IC50 [2]?
Answer: > 10 µM

Question: What does the source list for CC(=O)N1CC[C@H]2CC[C@@H](C(=O)N(C)c3ccc(C(C)(C)C#N)cc3)N2C(=O)[C@@H](NC(=O)c2cc3cc(C(F)(F)P(=O)(O)O)ccc3s2)C1 [Compound 2, ((2-(((5S,8S,10aR)-3-acetyl-8-((4-(2-cyanopropan-2-yl)phenyl)(methyl)carbamoyl)-6-oxodecahydropyrrolo[1,2-a][1,5]diazocin-5-yl)carbamoyl)benzo[b]thiophen-5-yl)difluoromethyl)phosphonic Acid]?
Answer: IC50 [1]: 0.3 to 3 µM; IC50 [2]: > 10 µM
